Reference: ChEMBL document CHEMBL1154001, “Discovery of potent and selective DP1 receptor antagonists in the azaindole series” (Bioorg Med Chem Lett, 2009)

Assays:
[1] = Bioavailability in rat; assay type: ADME, organism-based; details: in vivo
[2] = Terminal half life in rat at 10 mg/kg; assay type: ADME, organism-based; set-up: dose 10 mg/kg; details: in vivo, read-out: beta t1/2 (converted)
[3] = Cmax in rat at 30 mg/kg; assay type: ADME, organism-based; set-up: dose 30 mg/kg; details: in vivo
[4] = Plasma clearance in rat at 10 mg/kg; assay type: ADME, organism-based; set-up: dose 10 mg/kg
[5] = Volume of distribution at steady state in rat at 10 mg/kg; assay type: ADME, organism-based; set-up: dose 10 mg/kg; details: in vivo, read-out: Vdss
[6] = Bioavailability in Beagle dog; assay type: ADME, organism-based, Canis lupus familiaris; details: in vivo
[7] = Terminal half life in Beagle dog at 10 mg/kg; assay type: ADME, organism-based, Canis lupus familiaris; set-up: dose 10 mg/kg; details: in vivo, read-out: beta t1/2 (converted)
[8] = Cmax in Beagle dog at 10 mg/kg; assay type: ADME, organism-based, Canis lupus familiaris; set-up: dose 10 mg/kg; details: in vivo
[9] = Plasma clearance in Beagle dog at 2 mg/kg; assay type: ADME, organism-based, Canis lupus familiaris; set-up: dose 2 mg/kg
[10] = Volume of distribution at steady state in Beagle dog at 2 mg/kg; assay type: ADME, organism-based, Canis lupus familiaris; set-up: dose 2 mg/kg; details: in vivo, read-out: Vdss
[11] = Bioavailability in cynomolgus monkey; assay type: ADME, organism-based, Macaca fascicularis; details: in vivo
[12] = Terminal half life in cynomolgus monkey at 10 mg/kg; assay type: ADME, organism-based, Macaca fascicularis; set-up: dose 10 mg/kg; details: in vivo, read-out: beta t1/2 (converted)
[13] = Cmax in cynomolgus monkey at 4 mg/kg; assay type: ADME, organism-based, Macaca fascicularis; set-up: dose 4 mg/kg; details: in vivo
[14] = Plasma clearance in cynomolgus monkey at 2 mg/kg; assay type: ADME, organism-based, Macaca fascicularis; set-up: dose 2 mg/kg
[15] = Volume of distribution at steady state in cynomolgus monkey at 2 mg/kg; assay type: ADME, organism-based, Macaca fascicularis; set-up: dose 2 mg/kg; details: in vivo, read-out: Vdss
[16] = Bioavailability in squirrel monkey; assay type: ADME, organism-based; details: saimiri, in vivo
[17] = Terminal half life in squirrel monkey at 10 mg/kg; assay type: ADME, organism-based; set-up: dose 10 mg/kg; details: saimiri, in vivo, read-out: beta t1/2 (converted)
[18] = Cmax in squirrel monkey at 10 mg/kg; assay type: ADME, organism-based; set-up: dose 10 mg/kg; details: saimiri, in vivo
[19] = Plasma clearance in squirrel monkey at 5 mg/kg; assay type: ADME, organism-based; set-up: dose 5 mg/kg; details: saimiri
[20] = Volume of distribution at steady state in squirrel monkey at 5 mg/kg; assay type: ADME, organism-based; set-up: dose 5 mg/kg; details: saimiri, in vivo, read-out: Vdss

bioavailability [1]: 53% | half-life [2]: 498 min | Cmax [3]: 28 µM | clearance [4]: 1.6 mL/min/kg | Vd [5]: 0.47 L/kg | bioavailability [6]: 23% | half-life [7]: 516 min | Cmax [8]: 9 µM | clearance [9]: 4 mL/min/kg | Vd [10]: 1.2 L/kg | bioavailability [11]: 4% | half-life [12]: 828 min | Cmax [13]: 60 nM | clearance [14]: 21 mL/min/kg | Vd [15]: 1.2 L/kg | bioavailability [16]: 43% | half-life [17]: 84 min | Cmax [18]: 8.5 µM | clearance [19]: 7.3 mL/min/kg | Vd [20]: 0.78 L/kg
Compound: CC(C)c1nccc2c1c(Sc1ccc(Cl)c(Cl)c1)c1n2CC[C@@H]1CC(=O)O
